Data as given in patent US5728704A, “Substituted pyridmidines for control of diabetic complications” (Pfizer Inc., priority 1995, dated 1998).

Tests used:
[1] = tested on: sciatic nerve fructose and sorbitol; assay: sciatic nerve fructose and sorbitol in streptozocin-diabetic rats after a single oral dose; format: in vivo, rat (male Sprague-Dawley); conditions: single oral dose 10, 50, 100 or 300 mg/kg, 4-6 hours after dosing (FIG. 4)
Experimental: (§1) Male Sprague-Dawley rats (350-400 g) were used for these experiments. Diabetes was induced in some of the rats by a tail vein injection of streptozocin, 85 mg/kg. Twenty-four hours later, 4 groups of diabetic rats were given a single dose of 4-[4-(N,N-dimethylsulfamoyl)-piperazino]-2-methylpyrimidine (10, 50, 100, or 300 mg/kg) by oral gavage. Animals were sacrificed 4-6 hours after dosing and blood and sciatic nerves were harvested. Tissues and cells were extracted with 6% perchloric acid.
(§2) Sorbitol in erythrocytes and nerves was measured by a modification of the method of R. S. Clements et al. (Science, 166: 1007-8, 1969). […] After incubation for 30 minutes at room temperature, sample fluorescence was determined on a fluorescence spectrophotometer with excitation at 366 nm and emission at 452 nm. After subtracting appropriate blanks, the amount of sorbitol in each sample was determined from a linear regression of sorbitol standards processed in the same manner as the tissue extracts.
(§3) Fructose was determined by a modification of the method described by M. Ameyama, Methods in Enzymology, 89: 20-25 (1982). […] After incubation for 60 minnutes at room temperature, sample fluorescence was determined on a fluorescence spectrophotometer with excitation at 560 nm and emission at 580 nm. […]

sorbitol dehydrogenase [2] = target: T1, sorbitol dehydrogenase (Ovis aries, UniProt P07846); assay: inhibition of sorbitol dehydrogenase in vitro (direct test); format: biochemical; conditions: tested directly on sorbitol dehydrogenase in vitro
T1 sequence (P07846 1-354): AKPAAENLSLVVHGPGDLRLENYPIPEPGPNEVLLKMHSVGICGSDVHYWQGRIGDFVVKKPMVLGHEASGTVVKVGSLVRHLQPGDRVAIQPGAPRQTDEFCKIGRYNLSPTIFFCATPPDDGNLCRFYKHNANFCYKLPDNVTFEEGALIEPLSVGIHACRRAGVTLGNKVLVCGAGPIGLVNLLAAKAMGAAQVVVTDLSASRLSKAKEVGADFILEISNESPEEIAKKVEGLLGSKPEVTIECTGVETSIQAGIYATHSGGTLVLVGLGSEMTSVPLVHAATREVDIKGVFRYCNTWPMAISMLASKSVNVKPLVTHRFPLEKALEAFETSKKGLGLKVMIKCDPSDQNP
Experimental: (§4) SDH activity was measured by a modification of the method described by U. Gerlach, Methodology of Enzymatic Analyses, edited by H. U. Bergmeyer, 3, 112-117 (1983). Aliquots of sera or urine were added to the assay system, which had final concentrations of reagents of 0.1M potassium phosphate buffer, pH 7.4, 5 mM NAD, 20 mM sorbitol, and 0.7 units/ml of sorbitol dehydrogenase. After incubation for 10 minutes at room temperature, the average change in sample absorbance was determined at 340 nm. SDH activity was presented as milliOD340 units/minute (OD340 =optical density at 340 nm).
The IC50 values indicate the concentration at which fifty percent inhibition of sorbitol dehydrogenase in vitro was observed.

sorbitol dehydrogenase [3] = target: T1, sorbitol dehydrogenase; assay: in vitro inhibition of sorbitol dehydrogenase by urine from dosed rats; format: biochemical
Experimental: as §4

sorbitol dehydrogenase [4] = target: T1, sorbitol dehydrogenase; assay: in vitro inhibition of sorbitol dehydrogenase by sera from dosed rats; format: biochemical; conditions: sera from rats dosed with the compound (FIG. 5)
Experimental: as §1, §4

[5] = tested on: erythrocyte (red blood cell) fructose and sorbitol; assay: erythrocyte fructose and sorbitol in streptozocin-diabetic rats after a single oral dose; format: in vivo, rat (male Sprague-Dawley); conditions: single oral dose 10, 50, 100 or 300 mg/kg
Experimental: as §1, §2, §3

IC50 (sorbitol dehydrogenase [2]): 500 µM
inhibition of SDH with as little as 0.5 μl of urine (sorbitol dehydrogenase [3]; 0.5 μl of urine of dosed animals (FIG. 6)): strong inhibition
SMILES: Cc1nccc(N2CCN(S(=O)(=O)N(C)C)CC2)n1 [Compound 1, 4-[4-(N,N-dimethylsulfamoyl)-piperazino]-2-methylpyrimidine]
sciatic nerve sorbitol [1]: increase in sorbitol
SDH inhibitory activity of urine compared with sera (sorbitol dehydrogenase [3]; urine (FIG. 6) compared with sera (FIG. 5)): even more potent source of SDH inhibitory activity
inhibition of SDH in vitro by urine of dosed animals (sorbitol dehydrogenase [3]; urine of animals dosed with the compound (FIG. 6)): potently inhibited SDH in vitro in a dose dependent manner
inhibition of SDH in vitro by sera from dosed rats (sorbitol dehydrogenase [4]): potently inhibited SDH in vitro in a dose dependent manner
erythrocyte (RBC) fructose ([5]; 4-6 hours after dosing (FIG. 1)): dose dependently lowered
erythrocyte sorbitol ([5]; 4-6 hours after dosing (FIG. 2)): dose dependently raised
